Results from US6555578B2, “Thyromimetic antiobesity agents” (Pfizer Inc., priority 1999, dated 2003).

Tested on: whole body oxygen consumption
Experiment: In vivo screen: whole body (resting) oxygen consumption in fatty Zucker rats by indirect calorimetry
Conditions: male fatty Zucker rats, oral gavage once daily for 6 days, measured the day after the last dose
Protocol: This in vivo screen is designed to evaluate the efficacy and cardiac effects of compounds that are tissue selective thyroid hormone agonists. The efficacy endpoints measured are whole body oxygen consumption and the activity of liver mitochrondrial alpha-glycerophosphate dehydrogenase (mGPDH). The cardiac endpoints that are measured are heart weight and heart mGPDH activity. The protocol involves dosing fatty Zucker rats for 6 days, then measuring oxygen consumption and harvesting of tissues for preparation of mitochondria and assaying of enzyme activity. […]
Oxygen consumption is measured the day after the last dose of compound is given using an open circuit, indirect calorimeter (Oxymax, Columbus Instruments, 950 North Hague Ave., Columbus, Ohio 43204). […] Rats are removed from their home cages, their body weights are recorded and they are placed in sealed chambers (43×43×10 cm) of the calorimeter and the chambers are placed in activity monitors. […] The activity monitors have 15 infrared light beams spaced one inch apart on each axis; ambulatory activity is recorded when two consecutive beams are broken and the results are recorded as counts. Oxygen consumption and ambulatory activity are measured every 10 minutes for 5-6.5 hours. […]

Cc1cc(NC(=O)C(=O)O)cc(C)c1Oc1ccc(O)c(C(C)C)c1 [CGS-23425, N-[3,5-dimethyl-4-(4′-hydroxy-3′-isopropylphenoxy)-phenyl]-oxamic acid]
stimulated oxygen consumption (dose of 1.0 mg/kg body weight): 27%

CCOC(=O)C(=O)Nc1cc(C)c(Oc2ccc(O)c(C(O)c3ccc(F)cc3)c2)c(C)c1 (centres unmarked) [CGS-26214, ethyl N-[4-[3′-[(4-fluorophenyl)hydroxymethyl]-4′-hydroxyphenoxy]-3,5-dimethylphenyl]oxamate]
stimulated oxygen consumption (doses of 0.005 to 0.3 mg/kg body weight): 14 to 31%
